Experimental data as given in patent US20150343016A1, “CHEMICAL ENTITIES AND THERAPEUTIC USES THEREOF” (The Regents of the University of Colorado, a body corporate, priority 2010, published 2015).

What was measured:
[1] = biological target: in vitro translation in rabbit reticulocytes; assay: In vitro translation assay in rabbit reticulocytes with Luciferase mRNA; assay type: biochemical
Experimental: In vitro translation assays were performed in rabbit reticulocytes (Promega) according to manufacturer's instruction, in the presence or absence of Bouvardin at final concentrations shown. Luciferase mRNA provided in the kit was used at a final concentration of 1 ug/ul. The reactions samples were incubated for 15 minutes at 37° C. and quenched by dilution with water. Luciferase activity was measured using a plate reader Multi-Mode Microplate Reader (Synergy 2 by BioTek) immediately after luciferase substrate addition. Samples were also subjected to electrophoresis on SDS-polyacrylamide gels and immunoblotted with goat polyclonal α-luciferase primary antibodies (Promega) and donkey anti-goat IgG, HRP secondary antibodies (Promega). The blots were visualized using chemiluminescence detection (Pierce). (A) Luciferase activity at different concentrations of Bouvardin. Error bars show SEM from triplicate samples. (B) Luciferase protein levels in corresponding samples.

[2] = tested on: 1586 Head and Neck Cancer cell line; assay: MTT assay, Bouvardin with ionizing radiation, 1586 (pre-treated); assay type: cell-based, human; details: 1586 cells
Experimental: “Combination Index” computation. Combination Indices were calculated using CalcuSyn software (Biosoft), which uses the method of Chou and Talalay. This method first computes drug-induced effect using the Hill Equation: where E is the measured effect; C is the drug concentration; Emax is the full range of drug effect, usually at or near 100%; IC50 is the drug concentration producing the median effect of 50%; and n is the curve shape parameter describing the steepness of the concentration-effect relationship. The Chou and Talalay method then linearizes the Hill Equation by logarithmic transformation as: where fu is the fraction of cells left unaffected after drug exposure, fa is the fraction of cells affected by the exposure, C is the drug concentration used, Cm is the concentration to achieve the median effect, and n is the curve shape parameter. Cm and n are equivalent to IC50 and n, respectively, in the Hill Equation. The values of n (obtained from the slope), nlog(Cm) (obtained from the absolute value of the intercept), and, therefore, Cm are obtained by plotting log(fu−1−1) versus log(C). These numbers are then used to compute the Combination Index (CI) according to the formula: CI=(D)1/(Dx)1+(D)2/(Dx)2 (26). (Dx)1 and (Dx)2 are the doses required to achieve a given effect level for each treatment, i.e. a specified value of Fraction Affected or Fa. (D)1 and (D)2 are the doses of each treatment in a given combination which gives the same Fa.
The growth inhibitory effects of Bouvardin with ionizing radiation (IR) were evaluated using a modified tetrazolium salt (MTT) assay. In the MTT assay, 1,000 to 2,000 viable cells were plated in 100 uL of growth medium in 96-well plates (Corning, Ithaca, N.Y.). Following an overnight incubation, drug was added in varying concentrations and the plates were irradiated on the same day (co-treatment) or 24 hr later (pre-treatment) and incubated for 6 to 7 days. The tetrazolium salt was added at a concentration of 0.4 mg/mL to each well following the 6- to 7-day treatment. The plates were incubated with the salt for 4 hours at 37° C. At 4 hours, the medium was aspirated off, leaving the dark blue formazan product at the bottom of the wells. The reduced MTT product was solubilized by adding […] of 0.2 N HCl in 75% isopropanol, 23% MilliQ water to each well. Thorough mixing was done using a Titertek multichannel pipetman. The absorbency of each well was measured using an automated plate reader (Molecular Devices, Sunnyvale, Calif.). All experiments were done in triplicate.
MTT assays were used to determine the effect of Bouvardin (concentrations in uM) in combination with ionizing radiation (in Gy, X-axis). FIG. 14 depicts CI values for Bouvardin and radiation on 3 cell lines. Combination Index data from 3 different Head and Neck Cancer cell lines are shown. Black dashed lines represent a CI value of 1. CI values below 1 indicate synergy. 1586 and UM-SCC19 were pre-treated whereas HN31 was treated on the same day.

COc1ccc(C[C@H]2C(=O)N[C@H](C)C(=O)N(C)[C@@H]3C(=O)N(C)[C@@H](Cc4ccc(O)c(c4)Oc4ccc(cc4)[C@H]3O)C(=O)N[C@@H](C)C(=O)N[C@H](C)C(=O)N2C)cc1 (stereo in doubt) [Bouvardin, bouvardin]
IC50 in in vitro translation reactions [1]: nM range | effect on in vitro translation (luciferase activity and protein) ([1]; 15 minutes at 37° C.): inhibits translation | Combination Index ([2]; Bouvardin 0.001 uM + 1 Gy IR): 1.553 | Fraction Affected ([2]; Bouvardin 0.001 uM + 1 Gy IR): 0.254 | Combination Index ([2]; Bouvardin 0.001 uM + 2 Gy IR): 0.903 | Fraction Affected ([2]; Bouvardin 0.001 uM + 2 Gy IR): 0.23 | Combination Index ([2]; Bouvardin 0.001 uM + 4 Gy IR): 1.112 | Fraction Affected ([2]; Bouvardin 0.001 uM + 4 Gy IR): 0.503 | Combination Index ([2]; Bouvardin 0.003 uM + 1 Gy IR): 1.898 | Fraction Affected ([2]; Bouvardin 0.003 uM + 1 Gy IR): 0.264 | Combination Index ([2]; Bouvardin 0.003 uM + 2 Gy IR): 1.383 | Fraction Affected ([2]; Bouvardin 0.003 uM + 2 Gy IR): 0.303 | Combination Index ([2]; Bouvardin 0.003 uM + 4 Gy IR): 0.753 | Fraction Affected ([2]; Bouvardin 0.003 uM + 4 Gy IR): 0.51 | Combination Index ([2]; Bouvardin 0.006 uM + 1 Gy IR): 1.626 | Fraction Affected ([2]; Bouvardin 0.006 uM + 1 Gy IR): 0.301 | Combination Index ([2]; Bouvardin 0.006 uM + 2 Gy IR): 1.285 | Fraction Affected ([2]; Bouvardin 0.006 uM + 2 Gy IR): 0.371 | Combination Index ([2]; Bouvardin 0.006 uM + 4 Gy IR): 0.732 | Fraction Affected ([2]; Bouvardin 0.006 uM + 4 Gy IR): 0.634 | Combination Index ([2]; Bouvardin 0.01 uM + 1 Gy IR): 0.433 | Fraction Affected ([2]; Bouvardin 0.01 uM + 1 Gy IR): 0.45 | Combination Index ([2]; Bouvardin 0.01 uM + 2 Gy IR): 1.482 | Fraction Affected ([2]; Bouvardin 0.01 uM + 2 Gy IR): 0.518 | Combination Index ([2]; Bouvardin 0.01 uM + 4 Gy IR): 1.348 | Fraction Affected ([2]; Bouvardin 0.01 uM + 4 Gy IR): 0.604 | Combination Index ([2]; Bouvardin 0.03 uM + 1 Gy IR): 1.211 | Fraction Affected ([2]; Bouvardin 0.03 uM + 1 Gy IR): 0.537 | Combination Index ([2]; Bouvardin 0.03 uM + 2 Gy IR): 0.841 | Fraction Affected ([2]; Bouvardin 0.03 uM + 2 Gy IR): 0.628 | Combination Index ([2]; Bouvardin 0.03 uM + 4 Gy IR): 1.284 | Fraction Affected ([2]; Bouvardin 0.03 uM + 4 Gy IR): 0.624 | Combination Index ([2]; Bouvardin 0.06 uM + 1 Gy IR): 0.898 | Fraction Affected ([2]; Bouvardin 0.06 uM + 1 Gy IR): 0.584 | Combination Index ([2]; Bouvardin 0.06 uM + 2 Gy IR): 0.962 | Fraction Affected ([2]; Bouvardin 0.06 uM + 2 Gy IR): 0.677 | Combination Index ([2]; Bouvardin 0.06 uM + 4 Gy IR): 1.284 | Fraction Affected ([2]; Bouvardin 0.06 uM + 4 Gy IR): 0.813 | Combination Index ([2]; Bouvardin 0.1 uM + 1 Gy IR): 1.815 | Fraction Affected ([2]; Bouvardin 0.1 uM + 1 Gy IR): 0.607 | Combination Index ([2]; Bouvardin 0.1 uM + 2 Gy IR): 3.214 | Fraction Affected ([2]; Bouvardin 0.1 uM + 2 Gy IR): 0.68 | Combination Index ([2]; Bouvardin 0.1 uM + 4 Gy IR): 2.639 | Fraction Affected ([2]; Bouvardin 0.1 uM + 4 Gy IR): 0.712 | Combination Index ([2]; Bouvardin 0.3 uM + 1 Gy IR): 2.656 | Fraction Affected ([2]; Bouvardin 0.3 uM + 1 Gy IR): 0.682 | Combination Index ([2]; Bouvardin 0.3 uM + 2 Gy IR): 2.382 | Fraction Affected ([2]; Bouvardin 0.3 uM + 2 Gy IR): 0.731 | Combination Index ([2]; Bouvardin 0.3 uM + 4 Gy IR): 3.756 | Fraction Affected ([2]; Bouvardin 0.3 uM + 4 Gy IR): 0.708 | Combination Index ([2]; Bouvardin 0.6 uM + 1 Gy IR): 4.194 | Fraction Affected ([2]; Bouvardin 0.6 uM + 1 Gy IR): 0.688 | Combination Index ([2]; Bouvardin 0.6 uM + 2 Gy IR): 4.765 | Fraction Affected ([2]; Bouvardin 0.6 uM + 2 Gy IR): 0.743 | Combination Index ([2]; Bouvardin 0.6 uM + 4 Gy IR): 4.11 | Fraction Affected ([2]; Bouvardin 0.6 uM + 4 Gy IR): 0.745 | Combination Index ([2]; Bouvardin 1 uM + 1 Gy IR): 1.553 | Fraction Affected ([2]; Bouvardin 1 uM + 1 Gy IR): 0.254 | Combination Index ([2]; Bouvardin 1 uM + 2 Gy IR): 0.903 | Fraction Affected ([2]; Bouvardin 1 uM + 2 Gy IR): 0.23 | Combination Index ([2]; Bouvardin 1 uM + 4 Gy IR): 1.112 | Fraction Affected ([2]; Bouvardin 1 uM + 4 Gy IR): 0.503
